Earlier results in US10463642B2, “Methods of treating heart failure diseases using prodrugs of methyl hydrogen fumarate” (priority 2016, dated 2019).
Structures can show the parent of a compound that is named as a salt. Where two headings read alike, the source gives them in different places.

Columns and labels:
[1] = system: central nervous system (CNS) inflammation; conditions: rat EAE
[2] = system: central nervous system (CNS) inflammation; conditions: murine EAE
[3] = healthy subjects, steady state

Row | SMILES | CNS inflammation in EAE [1] | CNS inflammation in EAE [2] | dose comparable to 240 mg DMF (Tecfidera) by comparing plasma levels of MHF [3] [mg]
1 | COC(=O)/C=C/C(=O)OC [DMF, Dimethyl fumarate] | inhibit | inhibit | –
2 | CCN(CC)C(=O)COC(=O)/C=C/C(=O)OC [XP23829, (N,N-diethylcarbamoyl)methyl methyl (2E)but-2-ene-1,4-dioate] | – | – | 400
